Counter-ions that a name gives are not always drawn.

The text below walks through data of patent US5554752A, “Spirovesamicols” (Regents of the University of Minnesota, priority 1995, dated 1996).

Series [1] concerns the target vesamicol receptor. Put plainly: Vesamicol receptor binding ([3H]vesamicol). As to conditions: for Ki: [3H]vesamicol approx. 5 nM, 24 h equilibration, racemates, read-out: Ki (Inhibitory potency of Spirovesamicols).
Series [2] deals with vesamicol receptor. The conditions noted are these: literature, cited from earlier work.
Series [3] relates to cholinergic neurotransmission. The conditions noted are these: Brittain et al, 1969; cited from earlier work.
The test system of the next series is α-adrenoceptor. As to conditions: at higher doses; cited from earlier work.
In series [4] the test system is storage and release of neurotransmitter. As to conditions: literature; cited from earlier work.
Series [5] relates to cholinergic neurotransmission. Put plainly: Pharmacological Activity of Spirovesamicols in Male Wistar Rats (anticholinergic signs and lethality, intraperitoneal). In kind it is in vivo, rat. The conditions noted are these: i.p. How it is done: Rats and mice were injected intraperitoneally with solutions of the compounds in aqueous EtOH (or aqueous DMSO). […] LD20 lethal dose for 20% of animals tested; LD40, lethal dose for 40%; LD60, lethal dose for 60%; L100, lethal dose for all animals; NR, no visible pharmacologic reaction; S, sluggishness and reduced locomotor activity; +, mild symptoms of anticholinergic activity; ++, severe signs of anticholinergic activity.

Series [6] has as its system cholinergic neurotransmission. Put plainly: Pharmacological Activity of Spirovesamicols in Male Swiss Webster Mice (anticholinergic signs and lethality, intraperitoneal). The series is classed as in vivo, mouse. The conditions noted are these: i.p. Here is the method:
In vivo anticholinergic activity was evaluated in Swiss Webster mice. Blockade of cholinergic neurotransmission (or anticholinergic activity) was manifested in a rapidly developing respiratory distress, spasms and paralysis. At lethal doses these symptoms were followed by death within 10-20 min. As evident in Tables 1 and 2, the representative compounds tested were lethal at doses as low as 10 umol/Kg.
Rats and mice were injected intraperitoneally with solutions of the compounds in aqueous EtOH (or aqueous DMSO). […] At lethal doses, death generally occurred within 20 minutes following the injection. LD20 lethal dose for 20% of animals tested; LD40, lethal dose for 40%; LD60, lethal dose for 60%; L100, lethal dose for all animals; NR, no visible pharmacologic reaction; S, sluggishness and reduced locomotor activity; +, mild symptoms of anticholinergic activity; ++, severe signs of anticholinergic activity.

A word on the Ki: it is a measure of affinity in units of concentration, obtained from inhibition or displacement. Take “1'(4-Hydroxy-1-(2-fluorobenzyl)piperidin-3-yl)-spiro[1H-indene-1,4'-piperidine]dihydrochloride [Compound 11f]”: the inhibition constant Ki at vesamicol receptor [1] was determined as 0.248 ± 0.025 nM.
Consider `O[C@@H]1CCCC[C@H]1N1CCC(c2ccc(Cl)cc2)CC1` (relative stereo) [Compound 1b], for which, in the series with vesamicol receptor [2], the “potency/activity relative to vesamicol, in words” value is “between two and eight times less potent than vesamicol”.
Turning to `O=[N+]([O-])c1ccc(C2CCN([C@@H]3CCCC[C@H]3O)CC2)cc1` (relative stereo) [Compound 1c], the “potency/activity relative to vesamicol, in words” value in the series on vesamicol receptor [2] is “between two and eight times less potent than vesamicol”.
With `Nc1cccc2c1C[C@@H](N1CCC(c3ccccc3)CC1)[C@H](O)C2` (relative stereo) [Compound 2b], the “potency/activity relative to vesamicol, in words” value in the series on vesamicol receptor [2] is “a potent VR ligand”.
Regarding `O[C@@H]1CCCC[C@H]1N1CCc2ccccc2C1` (relative stereo) [Compound 6a], the “loss of activity relative to vesamicol” value in the series with vesamicol receptor [2] (less active than vesamicol) is given as 125 times.
In the case of `O=C1NCN(c2ccccc2)C12CCN([C@@H]1CCCC[C@H]1O)CC2` (relative stereo) [Compound 6b], in the series with vesamicol receptor [2], the “potency/activity relative to vesamicol, in words” value is “inactive”.
The Kd is the free concentration of one partner at which half of the binding sites on the other are occupied at equilibrium, for simple one-to-one binding. For `O[C@@H]1CCCC[C@H]1N1CCC(c2ccccc2)CC1` [(-)-vesamicol, reference compound], the Kd on vesamicol receptor [1] (conditions of this assay, read-out: dissociation constant (kd)) turned out to be 1 nM.
On to `OC1CCCCC1N1CCC(c2ccccc2)CC1` (centres unmarked) [Compound 1, 2-(4-phenylpiperidino)cyclohexanol], for which the Ki at vesamicol receptor [1] turned out to be 1 nM. Besides, the “effects in laboratory animals” value in series [3] is “induces respiratory paralysis, spasms and death”. Further, the α-adrenoceptor activity entry with α-adrenoceptor was “exhibits α-adrenoceptor activity at higher doses”. In series [4], the “effect on storage and release of neurotransmitter” value was “selectively inhibits the storage and release of neurotransmitter”; the “effect on synthesis of neurotransmitter” value is “without directly affecting the synthesis of this neurotransmitter”.
For `OC(Cc1ccc(Br)cc1)CN1CCC(c2ccccc2)CC1` (centres unmarked) [Compound 2a], in the series with vesamicol receptor [2], the “potency/activity relative to vesamicol, in words” value is on record as “equipotent with vesamicol”.
As to `COc1ccc2c3c1OC1C(O)C=CC4C(C2)N([C@@H]2CCCC[C@H]2O)CCC341` (some centres unmarked) [Compound 7a], the “potency/activity relative to vesamicol, in words” value with vesamicol receptor [2] was “inactive”.
`COc1ccc2c3c1OC1C(=O)CCC4C(C2)N([C@@H]2CCCC[C@H]2O)CCC314` (some centres unmarked) [Compound 7b]: the “potency/activity relative to vesamicol, in words” value in the series on vesamicol receptor [2] is “inactive”.
For the molecule `OC1CCCCC1N1CCC2(C=Cc3ccccc32)CC1` (centres unmarked) [Compound 11a, 1'-(2-Hydroxycylohex-1-yl)spiro[1H-indene-1,4'-piperidine]Hydrochloride], the “Pharmacological Activity” value was “+” in series [5] (10 umol/Kg); “++” in series [5] (22.5 umol/Kg); “LD100” in series [5] (45 umol/Kg); “+” in series [6] (12.5 umol/Kg); “LD40 (lethal dose for 40%)” in series [6] (25 umol/Kg); “LD60 (lethal dose for 60%)” in series [6] (50 umol/Kg). The “Pharmacological Activity” value in series [6] (100 umol/Kg) is “LD100”. The inhibition constant (Ki) on vesamicol receptor [1] amounted to 0.622 ± 0.082 nM.
As for `OC1Cc2ccccc2CC1N1CCC2(C=Cc3ccccc32)CC1` (centres unmarked) [Compound 11b, 1'-(2-Hydroxy-1,2,3,4-tetrahydronaphth-3-yl)-spiro[1H-indene-1,4'-piperidine]Hydrochloride], the “Pharmacological Activity” value is “++” in series [5] (1 umol/Kg); “LD100” in series [5] (5 umol/Kg); “LD100” in series [5] (10 umol/Kg); “LD100” in series [5] (20 umol/Kg); “+” in series [6] (1.25 umol/Kg); “LD20 (lethal dose for 20% of animals tested)” in series [6] (2.5 umol/Kg). Moreover, the “Pharmacological Activity” value in series [6] (5.0 umol/Kg) was “LD20 (lethal dose for 20% of animals tested)”; in series [6] (10 umol/Kg), “LD40 (lethal dose for 40%)”; in series [6] (20 umol/Kg), “LD60 (lethal dose for 60%)”; in series [6] (40 umol/Kg), “LD100”. On vesamicol receptor [1], the Ki was found to be 0.121 ± 0.032 nM.
As to `OC1CCN(Cc2ccccc2I)CC1N1CCC2(C=Cc3ccccc32)CC1` (centres unmarked) [Compound 11c, 1'-(4-Hydroxy1-(2-iodobenzyl)piperidin-3-yl)-spiro[1H-indene-1,4'-piperidine]dihydrochloride], the Ki at vesamicol receptor [1] turned out to be 0.798 ± 0.187 nM.
Still for that read-out and setting: the same measure for `OC1CCN(Cc2cccc(I)c2)CC1N1CCC2(C=Cc3ccccc32)CC1` (centres unmarked) [Compound 11d, 1'-(4-Hydroxy1-(3-iodobenzyl)piperidin-3-yl)-spiro[1H-indene-1,4'-piperidine]dihydrochloride]: 0.264 ± 0.078 nM; for `OC1CCCCC1N1CCC2(CCCc3ccccc32)CC1` (centres unmarked) [Compound 13a, 3,4-Dihydro-1'-(2-Hydroxycyclohex-1-yl)-spiro[naphthalene-1,4'-piperidine]hydrochloride]: 24.2 ± 5.71 nM.
Regarding `OC1Cc2ccccc2CC1N1CCC2(CCCc3ccccc32)CC1` (centres unmarked) [Compound 13b, 3,4-Dihydro-1'-(2-hydroxy-1,2,3,4-tetrahydronaphth-3-yl)-spiro[naphthalene-1(2H), 4'-piperidine]hydrochloride], the Ki at vesamicol receptor [1] was determined as 18.4 ± 14 nM.
The same measure, in the same setting: the same measure for `OC1CCN(Cc2ccccc2I)CC1N1CCC2(CCCc3ccccc32)CC1` (centres unmarked) [Compound 13c, 1'-(1-(2-Iodobenzyl)-4-hydroxypiperidin-3-yl)-3,4-dihydrospiro[naphthalene-1(2H),4'-piperidine]]: 5.8 ± 1.7 nM.
On to `OC1CCN(Cc2cccc(I)c2)CC1N1CCC2(CCCc3ccccc32)CC1` (centres unmarked) [Compound 13d, 1'-(1-(3-Iodobenzyl)-4-hydroxypiperidin-3-yl)-3,4-dihydrospiro[naphthalene-1(2H),4'-piperidine]], for which the figures for the “Pharmacological Activity” value in series [5] (50 umol/Kg) and in series [5] (125 umol/Kg) were “S” and “LD100”, respectively. Besides, on vesamicol receptor [1], the Ki was 0.082 ± 0.02 nM. The “potency relative to vesamicol, in words” value in the series with vesamicol receptor [1] (compared with vesamicol / (-)-vesamicol) is “at least ten times more potent than (-)-vesamicol”.
`OC1CCN(Cc2ccc(F)cc2)CC1N1CCC2(CCCc3ccccc32)CC1` (centres unmarked) [Compound 13f, 1'-(1-(4-fluorobenzyl)-4-hydroxypiperidin-3-yl)-3,4-dihydrospiro[naphthalene-1(2H),4'-piperidine]]: the Ki at vesamicol receptor [1] worked out at 2.6 ± 0.9 nM.
Take `OC1Cc2ccccc2CC1N1CCC2(CC1)C(Br)=Cc1ccccc12` (centres unmarked) [Compound 14, 1'-(2-Hydroxy-1,2,3,4-tetrahydronaphth-3-yl)-spiro[2-bromo-1H-indene-1,4'-piperidine]Hydrochloride]: the “Pharmacological Activity” value is reported as “+” in series [5] (12.5 umol/Kg), “LD100” in series [5] (25 umol/Kg) and “LD100” in series [5] (50 umol/Kg). The “increase in potency on bromine substitution at C2” value in the series on vesamicol receptor [1] (11a vs 14) amounted to 20 fold. Moreover, the Ki on vesamicol receptor [1] worked out at 0.038 ± 0.006 nM.
For the molecule `OC1Cc2ccccc2CC1N1CCC2(C=Cc3c(Br)cccc32)CC1` (centres unmarked) [Compound 15, 1'-(2-Hydroxy-1,2,3,4-tetrahydronaphth-3-yl)-spiro[4-bromo-1H-indene-1,4'-piperidine]Hydrochloride], the “Pharmacological Activity” value in series [5] (50 umol/Kg) was “+”. Besides, the Ki on vesamicol receptor [1] worked out at 0.212 ± 0.063 nM.
For `OC1Cc2ccccc2CC1N1CCC2(C=Cc3cc(Br)ccc32)CC1` (centres unmarked) [Compound 16, 1'-(2-Hydroxy-1,2,3,4-tetrahydronaphth-3-yl)-spiro[5-bromo-1H-indene-1,4'-piperidine]Hydrochloride], the inhibition constant (Ki) at vesamicol receptor [1] stood at 1.4 ± 0.3 nM.
With `OC1Cc2ccccc2CC1N1CCC2(C=Cc3ccc(Br)cc32)CC1` (centres unmarked) [Compound 17, 1'-(2-Hydroxy-1,2,3,4-tetrahydronaphth-3-yl)spiro[6-bromo-1H-indene-1,4'-piperidine]Hydrochloride], the Ki at vesamicol receptor [1] worked out at 0.271 ± 0.056 nM. In addition, in the series on vesamicol receptor [1] (in words), the “effect of bromine on potency” value is recorded as “slight reduction in potency”.
For `OC1CCN(Cc2cccc(I)c2)CC1N1CCC(c2ccccc2)CC1` (centres unmarked) [MIBT], the “potency/activity relative to vesamicol, in words” value with vesamicol receptor [2] was “potent ligands”.
For `OC1CCNCC1N1CCC(c2ccccc2)CC1` (centres unmarked) [trozamicol], in the series on vesamicol receptor [2], the “potency/activity relative to vesamicol, in words” value is on record as “poor ligand for vesamicol receptor”.
